The values that follow come from the supplement of paper PMC10307832.

Common to all, as to assay: relative viability (nuclei count vs DMSO), 5 days (fraction); higher = more cells survive
Compound in the assay “Dabrafenib + Dasatinib”: CC(C)(C)c1nc(-c2cccc(NS(=O)(=O)c3c(F)cccc3F)c2F)c(-c2ccnc(N)n2)s1 [Dabrafenib] + Cc1nc(Nc2ncc(C(=O)Nc3c(C)cccc3Cl)s2)cc(N2CCN(CCO)CC2)n1 [Dasatinib] (partner 0.075 µM)
The method, boiled down:
(§1)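 Five library-drug doses in √10 steps were combined with a fixed anchor-drug dose, or a single drug was given alone, by pin tool to lung cancer cell lines in 1536-well plates the day after seeding. Nuclei were stained and counted after 5 days. Relative viability is the nuclei count in treated wells over that in vehicle wells, taken as the median of duplicate plates.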

Compound in the assay “VX-702 + Tozasertib”: NC(=O)c1ccc(N(C(N)=O)c2c(F)cccc2F)nc1-c1ccc(F)cc1F [VX-702] + Cc1cc(Nc2cc(N3CCN(C)CC3)nc(Sc3ccc(NC(=O)C4CC4)cc3)n2)n[nH]1 [Tozasertib] (partner 0.1 µM)
The essentials: as §1

Compound in the assay “VX-702 + Foretinib”: NC(=O)c1ccc(N(C(N)=O)c2c(F)cccc2F)nc1-c1ccc(F)cc1F [VX-702] + COc1cc2c(Oc3ccc(NC(=O)C4(C(=O)Nc5ccc(F)cc5)CC4)cc3F)ccnc2cc1OCCCN1CCOCC1 [Foretinib] (partner 0.25 µM)
The method, boiled down:
as §1

Compound in the assay “Dabrafenib + Decitabine”: CC(C)(C)c1nc(-c2cccc(NS(=O)(=O)c3c(F)cccc3F)c2F)c(-c2ccnc(N)n2)s1 [Dabrafenib] + Nc1ncn([C@H]2C[C@H](O)[C@@H](CO)O2)c(=O)n1 [Decitabine] (partner 2 µM)
The method, boiled down: as §1

Compound in the assay “Dabrafenib + Trametinib”: CC(C)(C)c1nc(-c2cccc(NS(=O)(=O)c3c(F)cccc3F)c2F)c(-c2ccnc(N)n2)s1 [Dabrafenib] + CC(=O)Nc1cccc(-n2c(=O)n(C3CC3)c(=O)c3c(Nc4ccc(I)cc4F)n(C)c(=O)c(C)c32)c1 [Trametinib] (partner 0.02 µM)
The essentials:
as §1

Compound in the assay “Dabrafenib + Foretinib”: CC(C)(C)c1nc(-c2cccc(NS(=O)(=O)c3c(F)cccc3F)c2F)c(-c2ccnc(N)n2)s1 [Dabrafenib] + COc1cc2c(Oc3ccc(NC(=O)C4(C(=O)Nc5ccc(F)cc5)CC4)cc3F)ccnc2cc1OCCCN1CCOCC1 [Foretinib] (partner 0.25 µM)
The method, boiled down: as §1

Regarding SW 900, the relative viability with Dabrafenib + Dasatinib (first compound 0.009487 µM) amounted to 0.581; with Dabrafenib + Dasatinib (first compound 0.03 µM), 0.371; with Dabrafenib + Dasatinib (first compound 0.3 µM), 0.705; with VX-702 + Tozasertib (first compound 0.02 µM), 0.87; with VX-702 + Tozasertib (first compound 0.2 µM) it was 0.494; in the assay with VX-702 + Tozasertib (first compound 0.6325 µM) it was 0.621. The relative viability with VX-702 + Tozasertib (first compound 2 µM) was found to be 0.636; with VX-702 + Foretinib (first compound 0.02 µM) it was 0.726; with VX-702 + Foretinib (first compound 0.2 µM), 1.02; with VX-702 + Foretinib (first compound 0.6325 µM), 0.9; with VX-702 + Foretinib (first compound 2 µM), 0.958; with Dabrafenib + Decitabine (first compound 0.009487 µM), 0.35. The relative viability was 0.486 with Dabrafenib + Decitabine (first compound 0.09487 µM); 0.394 with Dabrafenib + Decitabine (first compound 0.3 µM); 0.671 in the assay with Dabrafenib + Trametinib (first compound 0.009487 µM); 1.04 with Dabrafenib + Trametinib (first compound 0.09487 µM); 0.93 with Dabrafenib + Trametinib (first compound 0.3 µM); 0.905 in the assay with Dabrafenib + Foretinib (first compound 0.009487 µM). Also, the results for the relative viability with Dabrafenib + Foretinib (first compound 0.03 µM) and in the assay with Dabrafenib + Foretinib (first compound 0.3 µM) were 0.788 and 0.856, respectively.
